Laboratory results: ChEMBL document CHEMBL1145580, “Synthesis of diketopiperazine-based carboline homodimers and in vitro growth inhibition of human carcinomas” (2008)

What was measured:
Format in all cases: functional
NCI-H520 [1] = assay: Cytotoxicity against human NCI-H520 cells assessed as cell survival at 10 uM relative to control; conditions: read-out: Activity
PC-3 [2] = assay: Cytotoxicity against human PC3 cells assessed as cell survival at 50 uM relative to control; conditions: read-out: Activity
NCI-H520 [3] = assay: Cytotoxicity against human NCI-H520 cells assessed as cell survival at 50 uM relative to control; conditions: read-out: Activity
NCI-H520 [4] = assay: Cytotoxicity against human NCI-H520 cells assessed as cell survival at 100 uM relative to control; conditions: read-out: Activity
PC-3 [5] = assay: Cytotoxicity against human PC3 cells assessed as cell survival at 10 uM relative to control; conditions: read-out: Activity
PC-3 [6] = assay: Cytotoxicity against human PC3 cells assessed as cell survival at 100 uM relative to control; conditions: read-out: Activity
PC-3 [7] = assay: Growth inhibition of human PC3 cells
NCI-H520 [8] = assay: Growth inhibition of human NCI-H520 cells

SMILES | viability at 10 µM (NCI-H520 [1]) [%] | viability at 50 µM (PC-3 [2]) [%] | viability at 50 µM (NCI-H520 [3]) [%] | viability at 100 µM (NCI-H520 [4]) [%] | viability at 10 µM (PC-3 [5]) [%] | viability at 100 µM (PC-3 [6]) [%] | GI50 (PC-3 [7]) [µM] | GI50 (NCI-H520 [8]) [µM]
COc1cc([C@@H]2c3[nH]c4ccccc4c3C[C@H]3C(=O)N4[C@H](c5cc(OC)c(OCc6ccccc6)c(OC)c5)c5[nH]c6ccccc6c5C[C@H]4C(=O)N23)cc(OC)c1OCc1ccccc1 | 88.1 | 68.8 | 81.3 | 81 | 98.2 | 54.5 | – | –
COc1cc([C@@H]2c3[nH]c4ccccc4c3C[C@H]3C(=O)N4[C@H](c5cc(OC)c(OC)c(OC)c5)c5[nH]c6ccccc6c5C[C@H]4C(=O)N23)cc(OC)c1OC | 90.3 | 80.5 | 90.8 | 86.7 | 93 | 65 | – | –
COc1cc([C@H]2c3[nH]c4ccccc4c3C[C@@H]3C(=O)N4[C@@H](c5cc(OC)c(O)c(OC)c5)c5[nH]c6ccccc6c5C[C@@H]4C(=O)N23)cc(OC)c1O | 88.7 | 43.6 | 53.2 | 26.8 | > 100 | 15.7 | 55.3 | 61.5
COc1cc([C@H]2c3[nH]c4ccccc4c3C[C@@H]3C(=O)N4[C@@H](c5cc(OC)c(OCc6ccccc6)c(OC)c5)c5[nH]c6ccccc6c5C[C@@H]4C(=O)N23)cc(OC)c1OCc1ccccc1 | > 100 | 92.7 | > 100 | 84.5 | > 100 | 65.1 | – | –
CC(C)=CCc1[nH]c2ccccc2c1C[C@@H]1NC(=O)[C@H]2CCCN2C1=O | – | – | – | – | – | – | 12.3 | –
COc1cc([C@H]2c3[nH]c4ccccc4c3C[C@@H]3C(=O)N4[C@@H](c5cc(OC)c(OC)c(OC)c5)c5[nH]c6ccccc6c5C[C@@H]4C(=O)N23)cc(OC)c1OC | 99.8 | > 100 | 98.9 | 98.9 | > 100 | 77.4 | – | –
COc1cc([C@@H]2c3[nH]c4ccccc4c3C[C@H]3C(=O)N4[C@H](c5cc(OC)c(O)c(OC)c5)c5[nH]c6ccccc6c5C[C@H]4C(=O)N23)cc(OC)c1O | 67.3 | 3.3 | 16.5 | 5.8 | 80.7 | 1.6 | 21.9 | 21.5
COc1cc([C@@H]2c3cc4c(cc3[C@@H](O[C@@H]3O[C@@H]5CO[C@@H](C)O[C@H]5[C@H](O)[C@H]3O)[C@H]3COC(=O)[C@H]23)OCO4)cc(OC)c1O [ETOPOSIDE] | 78.6 | 41.2 | 35.2 | 21.3 | 73.8 | 30.8 | 12.5 | 13.5
